# Molecular target: T1, Integrin alpha-4/beta-7 (Homo sapiens, UniProt P13612+P26010)
# T1 sequence (P13612 whole entry): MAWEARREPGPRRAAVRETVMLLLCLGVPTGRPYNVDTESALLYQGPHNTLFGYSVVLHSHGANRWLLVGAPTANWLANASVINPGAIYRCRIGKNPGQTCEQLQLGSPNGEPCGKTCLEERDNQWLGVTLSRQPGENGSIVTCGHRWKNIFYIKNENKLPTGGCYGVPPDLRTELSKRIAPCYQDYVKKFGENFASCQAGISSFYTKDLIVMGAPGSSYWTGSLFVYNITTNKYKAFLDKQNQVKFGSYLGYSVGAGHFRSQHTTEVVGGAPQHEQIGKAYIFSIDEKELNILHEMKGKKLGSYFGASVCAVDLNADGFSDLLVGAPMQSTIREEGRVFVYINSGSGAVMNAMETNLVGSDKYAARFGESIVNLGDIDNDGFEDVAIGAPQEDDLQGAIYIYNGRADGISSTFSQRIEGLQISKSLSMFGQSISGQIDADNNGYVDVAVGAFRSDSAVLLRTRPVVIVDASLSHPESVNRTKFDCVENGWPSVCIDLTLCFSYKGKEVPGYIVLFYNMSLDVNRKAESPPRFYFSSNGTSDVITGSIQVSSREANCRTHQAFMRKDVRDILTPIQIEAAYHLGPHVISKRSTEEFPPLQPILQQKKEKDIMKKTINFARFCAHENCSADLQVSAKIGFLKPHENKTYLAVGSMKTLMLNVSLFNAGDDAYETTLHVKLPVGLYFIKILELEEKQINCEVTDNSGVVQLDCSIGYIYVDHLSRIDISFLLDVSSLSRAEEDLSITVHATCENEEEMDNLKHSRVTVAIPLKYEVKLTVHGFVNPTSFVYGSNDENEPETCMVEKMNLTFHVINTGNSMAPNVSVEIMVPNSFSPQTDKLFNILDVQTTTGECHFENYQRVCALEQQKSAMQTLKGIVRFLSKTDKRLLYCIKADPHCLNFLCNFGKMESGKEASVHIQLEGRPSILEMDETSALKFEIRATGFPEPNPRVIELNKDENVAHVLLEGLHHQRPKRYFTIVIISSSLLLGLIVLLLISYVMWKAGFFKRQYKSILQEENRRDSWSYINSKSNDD
# T1 sequence (P26010 whole entry): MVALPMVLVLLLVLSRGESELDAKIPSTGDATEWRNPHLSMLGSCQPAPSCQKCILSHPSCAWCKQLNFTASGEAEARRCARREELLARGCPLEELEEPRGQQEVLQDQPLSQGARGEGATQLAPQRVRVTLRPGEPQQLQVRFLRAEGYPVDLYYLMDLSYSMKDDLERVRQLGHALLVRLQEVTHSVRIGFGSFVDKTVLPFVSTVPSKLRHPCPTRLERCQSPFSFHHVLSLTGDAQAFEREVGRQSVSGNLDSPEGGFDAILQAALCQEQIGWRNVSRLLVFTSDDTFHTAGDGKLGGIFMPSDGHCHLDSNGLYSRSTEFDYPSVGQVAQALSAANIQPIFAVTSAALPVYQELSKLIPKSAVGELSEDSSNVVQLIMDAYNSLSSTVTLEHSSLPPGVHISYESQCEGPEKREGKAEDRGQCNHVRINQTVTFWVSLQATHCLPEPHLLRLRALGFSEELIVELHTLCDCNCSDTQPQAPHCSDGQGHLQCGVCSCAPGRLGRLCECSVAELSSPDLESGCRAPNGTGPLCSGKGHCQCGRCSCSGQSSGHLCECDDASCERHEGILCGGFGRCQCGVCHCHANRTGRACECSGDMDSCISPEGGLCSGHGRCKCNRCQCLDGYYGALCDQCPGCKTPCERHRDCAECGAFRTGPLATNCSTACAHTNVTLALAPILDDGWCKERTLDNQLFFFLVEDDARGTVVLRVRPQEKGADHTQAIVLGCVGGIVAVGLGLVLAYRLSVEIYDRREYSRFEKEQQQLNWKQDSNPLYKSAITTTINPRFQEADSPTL
# Test: Inhibition of alpha-4 beta7/MAdCAM mediated cell adhesion was evaluated using B-cell lymphoma RPMI 8866 cells; call rule not given here
# Assay type: functional, cell-based
row,SMILES,IC50
1,CC(C)(C)OC(=O)[C@H](Cc1ccccc1)NCc1ccccc1F,117 µM
2,CC(C)(C)OC(=O)[C@H](Cc1ccccc1)NCc1cccc(O)c1,54 µM
3,CC(C)(C)OC(=O)[C@H](Cc1ccccc1)NCc1cccc(F)c1,176 µM
4,CC(C)(C)OC(=O)[C@H](Cc1ccccc1)NCc1ccccc1O,60 µM
5,O=C(OCc1ccccc1)[C@H](Cc1ccccc1)NCc1cc([N+](=O)[O-])ccc1O,7 µM
6,CC(C)(C)OC(=O)[C@H](Cc1ccccc1)NCc1ccccc1,100 µM
7,COc1cccc(CN[C@@H](Cc2ccccc2)C(=O)OC(C)(C)C)c1,122 µM
8,CC(C)(C)OC(=O)[C@H](Cc1ccccc1)NCc1cc([N+](=O)[O-])ccc1O,30 µM
9,CC(C)(C)OC(=O)[C@H](Cc1ccccc1)NCc1ccc(O)cc1,85 µM
10,COc1ccccc1CN[C@@H](Cc1ccccc1)C(=O)OC(C)(C)C,50 µM
11,COc1ccc(CN[C@@H](Cc2ccccc2)C(=O)OC(C)(C)C)cc1,122 µM
12,CC(C)(C)COC(=O)[C@H](Cc1ccccc1)NCc1cc([N+](=O)[O-])ccc1O,9 µM
13,C=C(C)CCOC(=O)[C@H](Cc1ccccc1)NCc1cc([N+](=O)[O-])ccc1O,82 µM
14,CC(C)CCNC(=O)[C@H](Cc1ccccc1)NCc1cc([N+](=O)[O-])ccc1O,6 µM
15,CC(C)CCOC(=O)[C@H](Cc1ccccc1)NCc1cc([N+](=O)[O-])ccc1O,7 µM
16,CC(C)(C)OC(=O)[C@H](Cc1ccccc1)NCc1ccc(F)cc1,121 µM

# Molecular target: T1, Integrin alpha-4/beta-7
# Test: Inhibition of alpha-4 beta7/MAdCAM mediated cell adhesion was evaluated using B-cell lymphoma RPMI 8866 cells; In active
# Assay type: functional, cell-based
row,SMILES,IC50
1,CC(C)(C)OC(=O)[C@H](Cc1ccccc1)NCc1ccc([N+](=O)[O-])c(O)c1,Not Active
2,CC(C)CCNC(=O)[C@@H](Cc1ccccc1)NCc1cc([N+](=O)[O-])ccc1O,Not Active
